System: HBV
Assay: Anti-HBV activity in vitro: quantification of extracellular HBV DNA by direct qPCR in HepAD38 cells
Format: cell-based
Conditions: Hepatitis B virus, tetracycline-free medium, 96 hours at 37°C, reported as EC50 threshold value, read-out: HBV inh EC50
Excerpt: HepAD38 cell line (Ladner et al., Antimicrob Agents Chemother, 1997, 41, 1715-20) was used for HBV inhibition assays. HepAD38 is a subclone, derived from Hepatoblastoma cell line HepG2 (ATCC® Number: HB-8065™), that expresses HBV genome under the transcriptional control of a tetracycline-responsive promoter in a TET-OFF system: addition of tetracycline (TET) or doxycycline suppresses HBV replication, while its removal switches on the process allowing HBV viral particles release in the cell supernatant. HepAD38 cell line is maintained in DMEM/F12, supplemented with 10% of fetal bovine serum, 1% of glutamine, 1% of penicillin/streptomycin, 0.4 mg/ml G418 and 0,3 ug/ml tetracycline. For the HBV inhibition assay, doxycycline-free medium is used in order to allow virion production.
HBV inhibition activity in vitro was performed in 96 multiwell plates. During the initial (primary) screening, compounds were first tested in triplicates at concentrations of 0.02 µM, 0.1 µM, 0.5µM and 1µM. For selected compounds, an 8-point dose-response curve was obtained using 1:2 serial dilutions (starting from 0.01µM, 0.1µM, 0.4µM or 5 µM, depending on the degree of inhibition observed during the primary screening). From the dose-response curves, half maximal effective concentration (EC50) could be calculated (see also below).
In more detail, compounds - typically dissolved in DMSO stock solutions - were diluted to 2x the final desired concentration in 100 µl of the above medium (without doxycycline) and plated in three replicates in the 96-well plates.
Simultaneously, HepAD38 cells - extensively pre-washed in tetracycline-free medium in order to induce HBV production - were suspended at 2^∗10^4 cells in 100 µl of tetracycline-free medium and added to each well of the plate, to yield a final assay volume of 200 µl DMSO - used for stock solutions and compounds dilutions - which was always present in the assays at a final concentration of 0.5%.
Plates were then incubated 96 hours at 37°C and then subjected to cell viability assays and extracellular HBV quantification, in order to evaluate both the cytotoxic potential and the antiviral activity of compounds. Cytotoxicity was assessed by a commercial fluorescence assay that measures the metabolic activity of cells, directly related to cell viability (Cell Titer Blue, Promega). Anti-HBV activity was evaluated by quantification of extracellular HBV DNA with direct qPCR. In particular, supernatant was collected and centrifuged for cell debris clarification, viral DNA was extracted from virions by addition of lysis buffer (1 mM 1,4-dithiothreitol, 0.2% sodium dodecyl sulphate) and incubated at 95°C for 10 min. Samples were then diluted 1:40 and real time PCR amplification was performed with SYBR green assay (Power SYBR™ Green PCR Master Mix-Thermo Fisher Scientific) and specific HBV primer (HBV-DF:5'-[…]-3' (SEQ ID No. 1), HBV-DR:5'-[…]-3' (SEQ ID No.2)).
Antiviral activity data for each compound are reported as EC50 threshold value (see Table 1 legend). Excel and Graphpad Prism programs are typically used for data elaboration and EC50 calculation.

| SMILES | EC50 [nM] |
| --- | --- |
| CN(C)C(=O)C(=O)N1C[C@@H]2COc3c(cn(C)c3C(=O)Nc3cc(F)c(F)c(F)c3)S(=O)(=O)N[C@@H]2C1 (relative stereo) [Example E1, cis-2-(2-(dimethylamino)-2-oxoacetyl)-7-methyl-N-(3,4,5-trifluorophenyl)-2,3,3a,4,10,10a-hexahydro-1H,7H-dipyrrolo[3,4-b:3',4'-f][1,4,5]oxathiazocine-8-carboxamide 5,5-dioxide] | < 500 |
| Cc1cc(NC(=O)c2c3c(cn2C)S(=O)(=O)N[C@@H]2CN(C(=O)C(=O)NC4(C)COC4)C[C@@H]2CO3)ccc1F (relative stereo) [Example E2, cis-N-(4-fluoro-3-methylphenyl)-7-methyl-2-(2-((3-methyloxetan-3-yl)amino)-2-oxoacetyl)-2,3,3a,4,10,10a-hexahydro-1H,7H-dipyrrolo[3,4-b:3',4'-f][1,4,5]oxathiazocine-8-carboxamide 5,5-dioxide] | < 500 |
| CNC(=O)C(=O)N1C[C@@H]2COc3c(cn(C)c3C(=O)Nc3ccc(F)c(C)c3)S(=O)(=O)N[C@@H]2C1 (relative stereo) [Example E10, cis N-(4-fluoro-3-methylphenyl)-7-methyl-2-(2-(methylamino)-2-oxoacetyl)-2,3,3a,4,10,10a-hexahydro-1H,7H-dipyrrolo[3,4-b:3',4'-f][1,4,5]oxathiazocine-8-carboxamide 5,5-dioxide] | < 500 |
| Cc1cc(NC(=O)c2c3c(cn2C)S(=O)(=O)N[C@@H]2CN(C(=O)C(N)=O)C[C@@H]2CO3)ccc1F (relative stereo) [Example E11, cis-2-(2-amino-2-oxoacetyl)-N-(4-fluoro-3-methylphenyl)-7-methyl-2,3,3a,4,10,10a-hexahydro-1H,7H-dipyrrolo[3,4-b:3',4'-f][1,4,5]oxathiazocine-8-carboxamide 5,5-dioxide] | < 500 |
| CNC(=O)C(=O)N1C[C@@H]2COc3c(cn(C)c3C(=O)Nc3cc(F)c(F)c(F)c3)S(=O)(=O)N[C@@H]2C1 (relative stereo) [Example E12, cis-7-methyl-2-(2-(methylamino)-2-oxoacetyl)-N-(3,4,5-trifluorophenyl)-2,3,3a,4,10,10a-hexahydro-1H,7H-dipyrrolo[3,4-b:3',4'-f][1,4,5]oxathiazocine-8-carboxamide 5,5-dioxide] | < 500 |
| Cn1cc2c(c1C(=O)Nc1cc(F)c(F)c(F)c1)OC[C@H]1CN(C(=O)C(N)=O)C[C@H]1NS2(=O)=O (relative stereo) [Example E13, cis-2-(2-amino-2-oxoacetyl)-7-methyl-N-(3,4,5-trifluorophenyl)-2,3,3a,4,10,10a-hexahydro-1H,7H-dipyrrolo[3,4-b:3',4'-f][1,4,5]oxathiazocine-8-carboxamide 5,5-dioxide] | < 500 |
| Cc1cc(NC(=O)c2c3c(cn2C)S(=O)(=O)N[C@@H]2CN(C(=O)C(=O)NC4CC4)C[C@]2(C)CO3)ccc1F (relative stereo) [Example E25, cis-2-(2-(cyclopropylamino)-2-oxoacetyl)-N-(4-fluoro-3-methylphenyl)-7,10a-dimethyl-2,3,3a,4,10,10a-hexahydro-1H,7H-dipyrrolo[3,4-b:3',4'-f][1,4,5]oxathiazocine-8-carboxamide 5,5-dioxide] | < 500 |
| Cc1cc(NC(=O)c2c3c(cn2C)S(=O)(=O)N[C@]2(C)CN(C(=O)C(=O)NC4CC4)C[C@@H]2CO3)ccc1F (relative stereo) [Example E28, cis-2-(2-(cyclopropylamino)-2-oxoacetyl)-N-(4-fluoro-3-methylphenyl)-3a,7-dimethyl-2,3,3a,4,10,10a-hexahydro-1H,7H-dipyrrolo[3,4-b:3',4'-f][1,4,5]oxathiazocine-8-carboxamide 5,5-dioxide] | < 500 |
| Cc1cc(NC(=O)c2c3c(cn2C)S(=O)(=O)N[C@@H]2CN(C(=O)C(=O)NC4CC4)C[C@H]2CO3)ccc1F (relative stereo) [Example E31, trans-2-(2-(cyclopropylamino)-2-oxoacetyl)-N-(4-fluoro-3-methylphenyl)-7-methyl-2,3,3a,4,10,10a-hexahydro-1H,7H-dipyrrolo[3,4-b:3',4'-f][1,4,5]oxathiazocine-8-carboxamide 5,5-dioxide] | < 500 |
| Cc1cc(NC(=O)c2c3c(cn2C)S(=O)(=O)N[C@@H]2CN(C(=O)C(=O)N[C@H](C)C(F)(F)F)C[C@]2(C)CO3)ccc1F (stereo in doubt) [Example E26, Cis-N-(4-fluoro-3-methylphenyl)-7,10a-dimethyl-2-(2-oxo-2-(((R)-1,1,1-trifluoropropan-2-yl)amino)acetyl)-2,3,3a,4,10,10a-hexahydro-1H,7H-dipyrrolo[3,4-b:3',4'-f][1,4,5]oxathiazocine-8-carboxamide 5,5-dioxide] | < 500 |
| Cc1cc(NC(=O)c2c3c(cn2C)S(=O)(=O)N[C@]2(C)CN(C(=O)C(=O)N[C@H](C)C(F)(F)F)C[C@@H]2CO3)ccc1F (stereo in doubt) [Example E27, Cis-N-(4-fluoro-3-methylphenyl)-3a,7-dimethyl-2-(2-oxo-2-(((R)-1,1,1-trifluoropropan-2-yl)amino)acetyl)-2,3,3a,4,10,10a-hexahydro-1H,7H-dipyrrolo[3,4-b:3',4'-f][1,4,5] oxathiazocine-8-carboxamide 5,5-dioxide] | < 500 |
| Cc1cc(NC(=O)c2c3c(cn2C)S(=O)(=O)N[C@@H]2CN(C(=O)C(=O)N[C@H](C)C(F)(F)F)C[C@H]2CO3)ccc1F (stereo in doubt) [Example E30, trans-N-(4-fluoro-3-methylphenyl)-7-methyl-2-(2-oxo-2-(((R)-1,1,1-trifluoropropan-2-yl)amino)acetyl)-2,3,3a,4,10,10a-hexahydro-1H,7H-dipyrrolo[3,4-b:3',4'-f][1,4,5]oxathiazocine-8-carboxamide 5,5-dioxide] | < 500 |
| Cc1cc(NC(=O)c2c3c(cn2C)S(=O)(=O)N[C@H]2CN(C(=O)C(=O)NC4(C)COC4)C[C@H]2CO3)ccc1F [Example E3, (3aR,10aR)-N-(4-fluoro-3-methylphenyl)-7-methyl-2-(2-((3-methyloxetan-3-yl)amino)-2-oxoacetyl)-2,3,3a,4,10,10a-hexahydro-1H,7H-dipyrrolo[3,4-b:3',4'-f][1,4,5]oxathiazocine-8-carboxamide 5,5-dioxide] | < 500 |
| Cn1cc2c(c1C(=O)Nc1cc(F)c(F)c(F)c1)OC[C@@H]1CN(C(=O)C(=O)NC3(C)COC3)C[C@@H]1NS2(=O)=O [Example E4, (3aR,10aR)-7-methyl-2-(2-((3-methyloxetan-3-yl)amino)-2-oxoacetyl)-N-(3,4,5-trifluorophenyl)-2,3,3a,4,10,10a-hexahydro-1H,7H-dipyrrolo[3,4-b:3',4'-f][1,4,5]oxathiazocine-8-carboxamide 5,5-dioxide] | < 500 |
| Cn1cc2c(c1C(=O)Nc1ccc(F)c(Cl)c1)OC[C@@H]1CN(C(=O)C(=O)NC3(C)COC3)C[C@@H]1NS2(=O)=O [Example E5, (3aR,10aR)-N-(3-chloro-4-fluorophenyl)-7-methyl-2-(2-((3-methyloxetan-3-yl)amino)-2-oxoacetyl)-2,3,3a,4,10,10a-hexahydro-1H,7H-dipyrrolo[3,4-b:3',4'-f][1,4,5] oxathiazocine-8-carboxamide 5,5-dioxide] | < 500 |
| Cn1cc2c(c1C(=O)Nc1ccc(F)c(C#N)c1)OC[C@@H]1CN(C(=O)C(=O)NC3(C)COC3)C[C@@H]1NS2(=O)=O [Example E6, (3aR,10aR)-N-(3-cyano-4-fluorophenyl)-7-methyl-2-(2-((3-methyloxetan-3-yl)amino)-2-oxoacetyl)-2,3,3a,4,10,10a-hexahydro-1H,7H-dipyrrolo[3,4-b:3',4'-f][1,4,5] oxathiazocine-8-carboxamide 5,5-dioxide] | > 500 |
| Cc1cc(NC(=O)c2c3c(cn2C)S(=O)(=O)N[C@H]2CN(C(=O)C(=O)NC(C)(C)C)C[C@H]2CO3)ccc1F [Example E7, (3aR,10aR)-2-(2-(tert-butylamino)-2-oxoacetyl)-N-(4-fluoro-3-methylphenyl)-7-methyl-2,3,3a,4,10,10a-hexahydro-1H,7H-dipyrrolo[3,4-b:3',4'-f][1,4,5]oxathiazocine-8-carboxamide 5,5-dioxide] | < 500 |

Source: patent EP3741762A1, “OXALAMIDO-SUBSTITUTED TRICYCLIC INHIBITORS OF HEPATITIS B VIRUS” (priority 2019, dated 2020)
